Experimental data reported in patent US10716765B2, “Delivery of functional compounds” (Intercontinental Great Brands LLC, priority 2009, dated 2020).

Tests used:
[1] = versus linalool and thymol, FIG. 3; cited from earlier work
[2] = In vitro digestion model simulating stomach and small intestine conditions; type: in vitro ADME
Description: This example compares the release of the non-esterified functional ingredient to the esterified functional ingredient during a simulated gastrointestinal study using an in vitro digestion model.
In addition, the partition coefficients for the ester compounds are greater than the parent compounds. These factors indicate that the ester compounds have a greater affinity for the hydrophobic carrier and insoluble matrix material than the parent compounds. […] The reduced rate is most evident when comparing linalool and thymol release from FIG. 4 to linalyl acetate and thymyl acetate release from FIG. 5. This improvement in stability within the model stomach implies increased stability in other low pH systems, such as acidic beverages, and further illustrates the importance of the esters for successful microencapsulation and enteric release of the functional ingredients.
As evident in FIGS. 4 and 5, the gastric release rate was reduced, as well as the release rate from 0-24.5 h, representative of the residence time in the small intestine. FIGS. 6 and 7 show the release rates of two esters of linalool, linalyl acetate in FIG. 6 and linalyl butyrate in FIG. 7 within a digestion model simulating stomach and small intestine conditions and residence times. In addition, the levels of the parent compounds present in the digestion model over time were measured. […]

[3] = Evaluation of emulsifiers in oil-in-water emulsion of essential oil blend; type: physicochemical; conditions: compared with other emulsifiers
Description: Various emulsifiers were combined with deionized water at 60 C to produce 2% solutions. The resulting solutions were combined with an essential oil blend composition (4% alpha-pinene, 30% para-cymene, 7% linalool, and 35% thymol and 24% soybean oil) in a 50:50 weight ratio with deionized water to create an oil-in-water emulsion. The emulsifiers evaluated were Glycosperse S-20 KFG (Lonza; Fairlawn, N.J.), Polyaldo 10-1-O KFG (Lonza; Fairlawn, N.J.), Aldosperse MS-20 KFG (Lonza; Fairlawn, N.J.), Polyaldo 10-2-P KFG (Lonza; Fairlawn, N.J.), Ryoto sugar ester (S-1570, Mitsubishi-Kagaku Food Corp.; Tokyo, Japan), Precept 8120 (Central Soya; Fort Wayne, Ind.) and sodium caseinate (Alanate-180, New Zealand Dairy Board; Wellington, New Zealand).

emulsion stability ([3]; after 24 hours storage at room temperature) | Compound | partition coefficient compared with parent compounds [1] | solubility in water compared with parent compounds [1] | hydrolysis of the ester to linalool [2] | oil droplets within the emulsion ([3]; 2% emulsifier solution, 50:50 with essential oil blend)
– | C=CC(C)(CCC=C(C)C)OC(=O)CCC (stereo not shown) [linalyl butyrate] | greater | significantly lower | about 5% | –
greatest stability | sucrose stearate [Example S-1570] | – | – | – | smallest and most uniformly dispersed oil droplets
– | C=CC(C)(CCC=C(C)C)OC(C)=O (stereo not shown) [linalyl acetate] | greater | significantly lower | about 33% | –
– | CC(=O)Oc1cc(C)ccc1C(C)C [thymyl acetate] | greater | significantly lower | – | –
